System: 695427-040-R-J1-PDC complex spheroid viability
Experiment: Anticancer human tumor 695427-040-R-J1-PDC patient-derived colon adenocarcinoma cell line growth inhibition [RAS]
Conditions: for viability, T/C: stronger effect = lower value
Summary of the method: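 Tumour cells grown as complex spheroids with HUVEC endothelial cells and mesenchymal stem cells, treated with RAS pathway inhibitor combinations. Each agent spans half-log steps from near clinical Cmax, or 10 microM where Cmax is unknown.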
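Also: viability read after seven days of drug exposure.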
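For viability, T/C in this document: 100% = DMSO vehicle control viability.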

For `C=CC(=O)Nc1cc(Nc2nccc(-c3cn(C)c4ccccc34)n2)c(OC)cc1N(C)CCN(C)C` + CCn1c(-c2cccnc2C(C)OC)c2c3cc(ccc31)N1CCOC(CC(NC(=O)C(C(C)C)N(C)C(=O)C3(F)CCN(C(=O)C#CC(C)(C)N(C)C)CC3)C(=O)N3CCCC(N3)C(=O)OCC(C)(C)C2)C1, the IC50 (curve of first compound, second compound 0.000949 µM) was 554 nM, the IC50 (curve of first compound, second compound 0.003 µM) was 571 nM and the IC50 (curve of first compound, second compound 0.00949 µM) was 453 nM. It also gave an IC50 (curve of first compound, second compound 0.03 µM) of 600 nM, an IC50 (curve of first compound, second compound 0.0949 µM) of 525 nM and an IC50 (curve of first compound, second compound 0.3 µM) of 287 nM. The viability, T/C (second compound 0.000949 µM, first compound 0.00316 µM) was 85.2%, the viability, T/C (second compound 0.000949 µM, first compound 0.01 µM) was 80.6% and the viability, T/C (second compound 0.000949 µM, first compound 0.0316 µM) was 73.5%. The viability, T/C (second compound 0.000949 µM, first compound 0.1 µM) was 100%, the viability, T/C (second compound 0.000949 µM, first compound 0.316 µM) was 60.9% and the viability, T/C (second compound 0.000949 µM, first compound 1 µM) was 38.5%. For the same compound, the viability, T/C (second compound 0.003 µM, first compound 0.00316 µM) was 91.3%, the viability, T/C (second compound 0.003 µM, first compound 0.01 µM) was 83.4% and the viability, T/C (second compound 0.003 µM, first compound 0.0316 µM) was 95.2%. The viability, T/C (second compound 0.003 µM, first compound 0.1 µM) was 114%, the viability, T/C (second compound 0.003 µM, first compound 0.316 µM) was 59.7% and the viability, T/C (second compound 0.003 µM, first compound 1 µM) was 40.8%. The viability, T/C (second compound 0.00949 µM, first compound 0.00316 µM) was 94.1%, the viability, T/C (second compound 0.00949 µM, first compound 0.01 µM) was 70.7% and the viability, T/C (second compound 0.00949 µM, first compound 0.0316 µM) was 87.6%. The viability, T/C (second compound 0.00949 µM, first compound 0.1 µM) was 82.2%, the viability, T/C (second compound 0.00949 µM, first compound 0.316 µM) was 56.3% and the viability, T/C (second compound 0.00949 µM, first compound 1 µM) was 36.1%. The viability, T/C (second compound 0.03 µM, first compound 0.00316 µM) was 80.9%, the viability, T/C (second compound 0.03 µM, first compound 0.01 µM) was 88% and the viability, T/C (second compound 0.03 µM, first compound 0.0316 µM) was 84.5%. The viability, T/C (second compound 0.03 µM, first compound 0.1 µM) was 73%, the viability, T/C (second compound 0.03 µM, first compound 0.316 µM) was 60.6% and the viability, T/C (second compound 0.03 µM, first compound 1 µM) was 42.1%. It also gave a viability, T/C (second compound 0.0949 µM, first compound 0.00316 µM) of 106%, a viability, T/C (second compound 0.0949 µM, first compound 0.01 µM) of 83.3% and a viability, T/C (second compound 0.0949 µM, first compound 0.0316 µM) of 84.5%. The viability, T/C (second compound 0.0949 µM, first compound 0.1 µM) was 80.2%, the viability, T/C (second compound 0.0949 µM, first compound 0.316 µM) was 67.7% and the viability, T/C (second compound 0.0949 µM, first compound 1 µM) was 31.5%. It also gave a viability, T/C (second compound 0.3 µM, first compound 0.00316 µM) of 74.5%, a viability, T/C (second compound 0.3 µM, first compound 0.01 µM) of 74.9% and a viability, T/C (second compound 0.3 µM, first compound 0.0316 µM) of 85.7%. The viability, T/C (second compound 0.3 µM, first compound 0.1 µM) was 52.8%, the viability, T/C (second compound 0.3 µM, first compound 0.316 µM) was 54.2% and the viability, T/C (second compound 0.3 µM, first compound 1 µM) was 32.3%.

`CC1(O)CCCC1n1c(=O)c(C(F)F)cc2cnc(NC3CCN(S(C)(=O)=O)CC3)nc21` (stereo not given) + C#Cc1c(F)ccc2cc(O)cc(-c3ncc4c(N5CC6CCC(C5)N6)nc(OCC56CCCN5CC(F)C6)nc4c3F)c12 was tested, and the IC50 (curve of first compound, second compound 0.0316 µM) was over 10000 nM, the IC50 (curve of first compound, second compound 0.1 µM) was over 10000 nM and the IC50 (curve of first compound, second compound 0.316 µM) was 8960 nM. It also gave an IC50 (curve of first compound, second compound 1 µM) of 7320 nM, an IC50 (curve of first compound, second compound 3.16 µM) of 4290 nM and an IC50 (curve of first compound, second compound 10 µM) of under 31.6 nM. For the same compound, the viability, T/C (second compound 0.0316 µM, first compound 0.0316 µM) was 95.4%, the viability, T/C (second compound 0.0316 µM, first compound 0.1 µM) was 95.5% and the viability, T/C (second compound 0.0316 µM, first compound 0.316 µM) was 103%. It also gave a viability, T/C (second compound 0.0316 µM, first compound 1 µM) of 123%, a viability, T/C (second compound 0.0316 µM, first compound 3.16 µM) of 122% and a viability, T/C (second compound 0.0316 µM, first compound 10 µM) of 57.4%. For the same compound, the viability, T/C (second compound 0.1 µM, first compound 0.0316 µM) was 104%, the viability, T/C (second compound 0.1 µM, first compound 0.1 µM) was 94.7% and the viability, T/C (second compound 0.1 µM, first compound 0.316 µM) was 109%. The viability, T/C (second compound 0.1 µM, first compound 1 µM) was 120%, the viability, T/C (second compound 0.1 µM, first compound 3.16 µM) was 114% and the viability, T/C (second compound 0.1 µM, first compound 10 µM) was 52.5%. For the same compound, the viability, T/C (second compound 0.316 µM, first compound 0.0316 µM) was 84%, the viability, T/C (second compound 0.316 µM, first compound 0.1 µM) was 80.6% and the viability, T/C (second compound 0.316 µM, first compound 0.316 µM) was 97.6%. It also gave a viability, T/C (second compound 0.316 µM, first compound 1 µM) of 103%, a viability, T/C (second compound 0.316 µM, first compound 3.16 µM) of 104% and a viability, T/C (second compound 0.316 µM, first compound 10 µM) of 45.4%. It also gave a viability, T/C (second compound 1 µM, first compound 0.0316 µM) of 82.7%, a viability, T/C (second compound 1 µM, first compound 0.1 µM) of 75.3% and a viability, T/C (second compound 1 µM, first compound 0.316 µM) of 78.7%. It also gave a viability, T/C (second compound 1 µM, first compound 1 µM) of 89.8%, a viability, T/C (second compound 1 µM, first compound 3.16 µM) of 84.2% and a viability, T/C (second compound 1 µM, first compound 10 µM) of 38.1%. For the same compound, the viability, T/C (second compound 3.16 µM, first compound 0.0316 µM) was 59.7%, the viability, T/C (second compound 3.16 µM, first compound 0.1 µM) was 54.7% and the viability, T/C (second compound 3.16 µM, first compound 0.316 µM) was 64.3%. For the same compound, the viability, T/C (second compound 3.16 µM, first compound 1 µM) was 57.4%, the viability, T/C (second compound 3.16 µM, first compound 3.16 µM) was 57.3% and the viability, T/C (second compound 3.16 µM, first compound 10 µM) was 30%. It also gave a viability, T/C (second compound 10 µM, first compound 0.0316 µM) of 42.9%, a viability, T/C (second compound 10 µM, first compound 0.1 µM) of 41.9% and a viability, T/C (second compound 10 µM, first compound 0.316 µM) of 42.1%. It also gave a viability, T/C (second compound 10 µM, first compound 1 µM) of 43.4%, a viability, T/C (second compound 10 µM, first compound 3.16 µM) of 36.1% and a viability, T/C (second compound 10 µM, first compound 10 µM) of 15.6%.

`O=C(c1ccc(F)c(F)c1Nc1ccc(I)cc1F)N1CC(O)([C@@H]2CCCCN2)C1` was tested, and the viability, T/C (compound 0.00316 µM) was 96.2% [middle of 4 runs], the viability, T/C (compound 0.0316 µM) was 63.3% [middle of 4 runs] and the viability, T/C (compound 0.1 µM) was 50.1% [middle of 4 runs]. For the same compound, the viability, T/C (compound 0.316 µM) was 23.3% [middle of 4 runs], the viability, T/C (compound 1 µM) was 6.95% [middle of 4 runs] and the IC50 (curve of compound) was 77.1 nM [middle of 4 runs].
